{"source": "paper PMC3706879", "about": "“The neurotrophic compound J147 reverses cognitive impairment in aged Alzheimer's disease mice” (Alzheimer's Research & Therapy, 2013)", "key": {"Rats": {"test_system": "Rats", "assay": "acute toxicity in rats (Absorption Systems)", "type": "in vivo", "conditions": "2 g/kg", "description": "The pharmacokinetics of J147 in the mouse brain and plasma were evaluated using standard procedures. Blood and brain distribution of J147 following per oral (PO) administration was plotted for mice as a function of time (Figure 5). […] Additional de-risking and target identification screens were carried out at 10 μM J147 by various CROs (Table 2). […] All original data are available upon request."}, "MDRI-MDCK": {"test_system": "MDRI-MDCK", "conditions": "MDCK-MDR1"}, "[1]": {"biological_target": "T1, monoamine oxidase B (MAO B) (Homo sapiens, UniProt P27338)", "T1 sequence (P27338 1-520)": "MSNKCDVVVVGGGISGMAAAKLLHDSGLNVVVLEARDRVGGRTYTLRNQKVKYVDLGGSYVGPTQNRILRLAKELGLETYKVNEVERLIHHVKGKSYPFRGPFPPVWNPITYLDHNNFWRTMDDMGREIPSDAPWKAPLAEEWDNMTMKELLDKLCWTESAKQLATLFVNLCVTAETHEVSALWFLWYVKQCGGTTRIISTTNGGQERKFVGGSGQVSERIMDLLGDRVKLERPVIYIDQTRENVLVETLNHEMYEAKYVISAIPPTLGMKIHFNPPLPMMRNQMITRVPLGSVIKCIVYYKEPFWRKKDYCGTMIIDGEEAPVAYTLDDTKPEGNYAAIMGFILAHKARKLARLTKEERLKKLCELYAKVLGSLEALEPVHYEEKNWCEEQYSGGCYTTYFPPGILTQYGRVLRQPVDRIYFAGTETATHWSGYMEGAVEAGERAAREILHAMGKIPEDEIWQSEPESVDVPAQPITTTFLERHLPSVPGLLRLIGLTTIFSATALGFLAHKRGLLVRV", "assay": "monoamine oxidase B assay (MDS Pharma Services)", "type": "biochemical", "description": "(§1) All screening was done at 10 μM J147 by various contract research organizations (CROs), including MDS Pharma Services (King of Prussia, PA, USA), Ricerca, now Panlabs (Concord, OH, USA), Ambit (La Jolla, CA, USA), Caliper (Hopkinton, MA, USA) and NovaScreen Biosciences (Hanover, MD, USA) by standard protocols described in their catalogs."}, "hERG": {"biological_target": "hERG (Homo sapiens, UniProt Q12809)", "sequence (Q12809 whole entry)": "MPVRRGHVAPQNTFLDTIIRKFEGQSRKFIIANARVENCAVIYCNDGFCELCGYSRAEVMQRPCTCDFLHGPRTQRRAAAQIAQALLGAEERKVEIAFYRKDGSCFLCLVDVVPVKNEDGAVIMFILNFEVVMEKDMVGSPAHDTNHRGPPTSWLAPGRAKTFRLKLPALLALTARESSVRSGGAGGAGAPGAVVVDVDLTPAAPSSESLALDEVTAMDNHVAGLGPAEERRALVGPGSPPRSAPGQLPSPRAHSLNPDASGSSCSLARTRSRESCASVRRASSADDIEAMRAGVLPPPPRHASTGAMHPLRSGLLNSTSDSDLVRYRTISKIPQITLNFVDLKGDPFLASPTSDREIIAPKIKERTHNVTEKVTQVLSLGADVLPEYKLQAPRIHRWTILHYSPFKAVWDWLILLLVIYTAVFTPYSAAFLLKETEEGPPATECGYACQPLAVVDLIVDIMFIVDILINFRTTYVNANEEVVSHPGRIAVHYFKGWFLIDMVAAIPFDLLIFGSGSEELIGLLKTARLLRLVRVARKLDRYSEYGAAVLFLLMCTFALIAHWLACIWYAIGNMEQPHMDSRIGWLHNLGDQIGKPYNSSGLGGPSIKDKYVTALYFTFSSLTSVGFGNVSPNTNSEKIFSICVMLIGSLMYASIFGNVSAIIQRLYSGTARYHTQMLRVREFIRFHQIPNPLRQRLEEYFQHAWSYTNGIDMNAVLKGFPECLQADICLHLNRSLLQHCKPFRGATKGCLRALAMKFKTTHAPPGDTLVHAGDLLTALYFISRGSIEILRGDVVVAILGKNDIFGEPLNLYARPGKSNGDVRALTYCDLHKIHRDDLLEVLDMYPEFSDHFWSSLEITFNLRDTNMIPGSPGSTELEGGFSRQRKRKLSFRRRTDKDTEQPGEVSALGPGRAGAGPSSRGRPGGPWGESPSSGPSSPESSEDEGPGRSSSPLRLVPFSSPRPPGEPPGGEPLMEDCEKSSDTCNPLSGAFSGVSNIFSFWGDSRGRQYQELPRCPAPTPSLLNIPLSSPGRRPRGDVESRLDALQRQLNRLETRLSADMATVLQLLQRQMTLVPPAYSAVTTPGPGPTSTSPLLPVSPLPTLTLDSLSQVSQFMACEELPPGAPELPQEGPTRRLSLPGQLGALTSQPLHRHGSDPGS"}, "CYP450 3A4": {"biological_target": "CYP450 3A4 (Homo sapiens, UniProt P08684)", "sequence (P08684 whole entry)": "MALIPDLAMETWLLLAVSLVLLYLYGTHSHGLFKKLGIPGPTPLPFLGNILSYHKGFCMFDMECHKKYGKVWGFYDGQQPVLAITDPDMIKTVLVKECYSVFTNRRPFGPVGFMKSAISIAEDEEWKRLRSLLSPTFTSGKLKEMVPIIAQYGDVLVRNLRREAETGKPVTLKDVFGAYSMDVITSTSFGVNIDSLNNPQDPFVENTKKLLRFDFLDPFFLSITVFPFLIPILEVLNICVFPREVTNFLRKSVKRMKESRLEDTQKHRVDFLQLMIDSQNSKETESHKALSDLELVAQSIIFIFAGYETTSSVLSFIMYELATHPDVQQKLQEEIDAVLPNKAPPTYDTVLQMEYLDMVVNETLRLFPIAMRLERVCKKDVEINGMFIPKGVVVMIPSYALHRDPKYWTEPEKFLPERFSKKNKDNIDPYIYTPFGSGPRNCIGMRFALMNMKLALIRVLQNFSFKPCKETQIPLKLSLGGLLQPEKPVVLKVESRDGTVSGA"}, "dopamine transporter": {"biological_target": "dopamine transporter (Homo sapiens, UniProt Q01959)", "sequence (Q01959 whole entry)": "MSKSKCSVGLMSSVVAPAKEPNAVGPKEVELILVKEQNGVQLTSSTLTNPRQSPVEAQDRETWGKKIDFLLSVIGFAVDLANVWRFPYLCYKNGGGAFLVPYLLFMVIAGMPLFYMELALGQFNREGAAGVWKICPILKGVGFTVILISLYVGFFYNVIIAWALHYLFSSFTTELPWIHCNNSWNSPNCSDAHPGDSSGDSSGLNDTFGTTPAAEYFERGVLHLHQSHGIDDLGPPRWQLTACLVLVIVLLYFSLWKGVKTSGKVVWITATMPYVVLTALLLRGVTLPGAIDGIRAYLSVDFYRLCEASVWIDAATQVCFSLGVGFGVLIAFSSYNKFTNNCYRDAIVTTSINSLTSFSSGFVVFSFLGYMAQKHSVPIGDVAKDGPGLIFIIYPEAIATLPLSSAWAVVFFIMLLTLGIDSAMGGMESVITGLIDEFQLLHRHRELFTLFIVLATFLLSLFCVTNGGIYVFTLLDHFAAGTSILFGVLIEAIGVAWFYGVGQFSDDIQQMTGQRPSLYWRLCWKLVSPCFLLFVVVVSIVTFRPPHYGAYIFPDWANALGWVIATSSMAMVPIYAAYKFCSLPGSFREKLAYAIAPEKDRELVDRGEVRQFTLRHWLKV", "assay": "dopamine transporter assay (MDS Pharma Services)", "type": "binding", "description": "as §1"}, "[2]": {"test_system": "BACE, APP, NGF, BDNF, Homer-1, Egr3, phosphorylated CREB", "assay": "Western blotting of hippocampal or entorhinal cortex tissue of aged huAPP/PS1 mice", "type": "in vivo", "description": "The APPswe/PS1ΔE9 transgenic mice have been previously characterized. The line 85 mice carry two transgenes, the mouse/human chimeric APP/Swe, linked to Swedish FAD and human PS1ΔE9. At 20 months of age both male and female transgenic mice were fed a high fat diet (Harlan Tekland, Madison, WI, USA) with and without J147 (200 ppm, 10 mg/kg/day). Treatment continued for three months and was followed by behavior testing and sacrifice of mice for tissue harvesting. […] (Data not shown).\nHippocampal and entorhinal cortex tissue samples were homogenized in 10 volumes of RIPA lysis buffer (50 mM Tris, pH 7.5, 150 mM NaCl, 0.1% sodium dodecyl sulfate and 0.5% deoxycholate, and 1% NP40) containing a cocktail of protease and phosphatase inhibitors ([…] each of pepstatin A, aprotinin, phosphoramidon, and leupeptin; 0.5 mM 4-(2-aminoethyl) benzenesulfonyl fluoride hydrochloride; 1 mM EGTA; 5 mM fenvalerate; and 5 mM cantharidin). Samples were sonicated (2 × 10 s) and centrifuged at 100,000 × g for 60 minutes at 4°C. Protein concentrations in the cell extracts were determined using the BCA protein assay (Pierce supplied by Thermo Fisher Scientific, Rockford, IL, USA). Equal amounts of protein were solubilized in 2.5x SDS-sample buffer, separated on 12% SDS-polyacrylamide gels, transferred to Immobulin P and immunoblotted with the antibodies indicated in the Materials section. For Western blots, protein levels were normalized to actin levels. An unpaired t test was performed to compare between two groups at a single time point. When comparing multiple groups, one-way ANOVA followed by a Tukey's post hoc test was used. All statistical analysis was conducted using GraphPad Instat software."}, "[3]": {"conditions": "dose response, re-assay after screening"}, "[4]": {"conditions": "hippocampus, vs control huAPP/PS1 mice"}}, "data": [{"compound": "COc1cccc(/C=N/N(C(=O)C(F)(F)F)c2ccc(C)cc2C)c1", "note": "[J147, (E)-N-(2,4-dimethylphenyl)-2,2,2-trifluoro-N'-(3methoxybenzyli-dene) acetohydrazide]", "values": [{"measurement": "acute toxicity", "setting": "Rats", "result": "negative results"}, {"measurement": "MDRI-MDCK brain transport rates classification (BBB penetration)", "setting": "MDRI-MDCK", "result": "High"}, {"measurement": "inhibition, monoamine oxidase B", "setting": "[1]; 10 μM J147", "result": "greater than 60%"}, {"measurement": "EC50", "setting": "[1]; [3]", "result": 1880, "unit": "nM"}, {"measurement": "hERG assay", "setting": "hERG", "result": "negative"}, {"measurement": "CYP450 3A4 assays (CYP450 inhibition)", "setting": "CYP450 3A4", "result": "negative"}, {"measurement": "inhibition, dopamine transporter", "setting": "dopamine transporter; 10 μM J147", "result": "greater than 60%"}, {"measurement": "EC50", "setting": "dopamine transporter; [3]", "result": 649, "unit": "nM"}, {"measurement": "penetration in the Caco-2 assay", "setting": "Caco-2", "result": "moderate and symmetrical penetration"}, {"measurement": "protein level of β-secretase (BACE)", "setting": "[2]; RIPA soluble fraction, hippocampus, vs untreated AD mice", "result": "significantly reduced"}, {"measurement": "phosphorylated CREB", "setting": "[2]; entorhinal cortex", "result": "significantly increased"}, {"measurement": "mature BDNF protein level", "setting": "[2]; hippocampus", "result": "increase"}, {"measurement": "proBDNF protein level", "setting": "[2]; hippocampus", "result": "increase"}, {"measurement": "ratio of pro- to mature BDNF", "setting": "[2]; hippocampus", "result": "decreased"}, {"measurement": "ratio of proNGF to mature NGF", "setting": "[2]; hippocampus", "result": "decreased significantly"}, {"measurement": "Egr3 level", "setting": "[2]; hippocampus, aged AD mice", "result": "significantly increased"}, {"measurement": "Homer-1 levels", "setting": "[2]; hippocampus, aged AD mice", "result": "significantly increased"}, {"measurement": "mature NGF level", "setting": "[2]; [4]", "result": "increases"}, {"measurement": "proNGF level", "setting": "[2]; [4]", "result": "increases"}, {"measurement": "APP protein levels", "setting": "[2]; soluble fractions of hippocampus, vs control AD mice", "result": "significantly increased"}]}]}
